Data published in US20070105873A1 (priority 2003, published 2007).

Assays:
Phytophthora infestans = format: in vivo; details: tomato cultivar Goldene Prinzessin, sprayed with 250 ppm a.i., infected next day, visual rating after 6 days; untreated 80
Alternaria solani = experiment: Persistency against early blight on tomatoes caused by Alternaria solani, protective treatment; format: in vivo; details: tomato cultivar Goldene Prinzessin, sprayed with 16 ppm a.i., infected only after seven days, rating after a further 5 days; untreated 90
Procedure: The active compounds were prepared separately as a stock solution with 0.25% by weight of active compound in acetone or DMSO. 1% by weight of the emulsifier Uniperol® EL (wetting agent having emulsifying and dispersing action based on ethoxylated alkylphenols) was added to this solution. The stock solutions of the active compounds were diluted with water to the stated concentration.
2. Persistency Against Early Blight on Tomatoes Caused by Alternaria solani, Protective Treatment
Leaves of potted plants of the cultivar “Goldene Prinzessin” were sprayed to runoff point with an aqueous suspension having the concentration of active compound stated below.
To test for persistency, the leaves were infected with an aqueous spore suspension of Alternaria solani in a 2% strength biomalt solution having a density of 0.17×10^6 spores/ml only after seven days. The plants were then placed in a water-vapor-saturated chamber at 20-22° C. After a further 5 days, the disease on the untreated, but infected control plants had developed to such an extent that the infection could be determined visually in %.

Row | Compound | infection at 250 ppm of a.i. (% leaf area) (Phytophthora infestans) | infection at 16 ppm of a.i. (% leaf area) (Alternaria solani)
1 | C[C@H](Nc1nc(C(N)=O)nc(Cl)c1-c1c(F)cc(F)cc1F)C(F)(F)F [I-5, 4-chloro-6-((S)-2,2,2-trifluoro-1-methylethylamino)-5-(2,4,6-trifluorophenyl)-pyrimidine-2-carboxamide] | 0 | 30
2 | CC(C)OC(=O)c1nc(Cl)c(-c2c(F)cc(F)cc2F)c(N[C@@H](C)C(F)(F)F)n1 [V-3, isopropyl 4-chloro-6-((S)-2,2,2-trifluoro-1-methylethylamino)-5-(2,4,6-trifluorophenyl)pyrimidine-2-carboxylate] | 5 | 
